Data published in patent US20100267697A1, “ION CHANNEL MODULATORS” (Wyeth, priority 2006, published 2010).
Like-named read-outs stand apart in the source and are kept apart here.

Experiments:
Cav2.2 = biological target: T1, Cav2.2 (Homo sapiens, UniProt Q00975); assay: HEK assay (whole-cell patch clamp, transiently transfected HEK-293T/17 cells, pulses P1 and P5); type: cell-based; conditions: holding potential −100 mV
T1 construct: expressed in transfected cells; host or cells: HEK-293T/17 (transient, FuGENE 6)
Method in brief: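 Whole-cell voltage clamp of HEK-293T/17 cells transiently transfected via FuGENE 6, then grown 24 h in 1% serum before recording. From −100 mV holding, trains of five 20–30 ms steps to about +10 mV at 5 Hz, repeated every 30 s; steady-state IC50s taken at first (P1) and fifth (P5) pulses to gauge use-dependent block.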

[1] = biological target: T2, human Cav2.2 (composed of the subunits α1, β3 and α2δ) (Homo sapiens, UniProt Q00975); assay: FLIPR assay (TSA201 cells stably transfected with human Cav2.2 and human Kir2.3, FLUO-4 Ca2+ signal, KCl depolarization); type: cell-based; conditions: 70 mM KCl depolarization, average value
T2 construct: expressed in transfected cells
Experimental: TSA201 cells stably transfected with human Cav2.2 (composed of the subunits α1, β3 and α2δ) and human Kir2.3 to enhance the FLIPR Ca^2+ signal were used. These cells were plated on 384-well collagen-coated plates (BD Bioscience, Franklin Lakes, N.J.) at a density of 2×10^4 cells/well one day prior to the FLIPR assay. […] Culture media is removed and replaced with 25 μl of the FLUO-4 dye solution and incubated for one hour at room temperature. The cell plate is then placed on the FLIPR where the dye is aspirated off and replaced with 25 μl of HBSS (Invitrogen, Carlsbad, Calif.). The HBSS is then aspirated and replaced with […] of compound which is diluted in HBSS with 1% DMSO. Compounds are incubated on the cells for 15 minutes. The cells are then depolarized with 25 μl of 140 mM KCl solution (also containing 2 mM CaCl2 and 10 mM HEPES). The final concentration of KCl on the cells is 70 mM.

T2 sequence (Q00975 whole entry): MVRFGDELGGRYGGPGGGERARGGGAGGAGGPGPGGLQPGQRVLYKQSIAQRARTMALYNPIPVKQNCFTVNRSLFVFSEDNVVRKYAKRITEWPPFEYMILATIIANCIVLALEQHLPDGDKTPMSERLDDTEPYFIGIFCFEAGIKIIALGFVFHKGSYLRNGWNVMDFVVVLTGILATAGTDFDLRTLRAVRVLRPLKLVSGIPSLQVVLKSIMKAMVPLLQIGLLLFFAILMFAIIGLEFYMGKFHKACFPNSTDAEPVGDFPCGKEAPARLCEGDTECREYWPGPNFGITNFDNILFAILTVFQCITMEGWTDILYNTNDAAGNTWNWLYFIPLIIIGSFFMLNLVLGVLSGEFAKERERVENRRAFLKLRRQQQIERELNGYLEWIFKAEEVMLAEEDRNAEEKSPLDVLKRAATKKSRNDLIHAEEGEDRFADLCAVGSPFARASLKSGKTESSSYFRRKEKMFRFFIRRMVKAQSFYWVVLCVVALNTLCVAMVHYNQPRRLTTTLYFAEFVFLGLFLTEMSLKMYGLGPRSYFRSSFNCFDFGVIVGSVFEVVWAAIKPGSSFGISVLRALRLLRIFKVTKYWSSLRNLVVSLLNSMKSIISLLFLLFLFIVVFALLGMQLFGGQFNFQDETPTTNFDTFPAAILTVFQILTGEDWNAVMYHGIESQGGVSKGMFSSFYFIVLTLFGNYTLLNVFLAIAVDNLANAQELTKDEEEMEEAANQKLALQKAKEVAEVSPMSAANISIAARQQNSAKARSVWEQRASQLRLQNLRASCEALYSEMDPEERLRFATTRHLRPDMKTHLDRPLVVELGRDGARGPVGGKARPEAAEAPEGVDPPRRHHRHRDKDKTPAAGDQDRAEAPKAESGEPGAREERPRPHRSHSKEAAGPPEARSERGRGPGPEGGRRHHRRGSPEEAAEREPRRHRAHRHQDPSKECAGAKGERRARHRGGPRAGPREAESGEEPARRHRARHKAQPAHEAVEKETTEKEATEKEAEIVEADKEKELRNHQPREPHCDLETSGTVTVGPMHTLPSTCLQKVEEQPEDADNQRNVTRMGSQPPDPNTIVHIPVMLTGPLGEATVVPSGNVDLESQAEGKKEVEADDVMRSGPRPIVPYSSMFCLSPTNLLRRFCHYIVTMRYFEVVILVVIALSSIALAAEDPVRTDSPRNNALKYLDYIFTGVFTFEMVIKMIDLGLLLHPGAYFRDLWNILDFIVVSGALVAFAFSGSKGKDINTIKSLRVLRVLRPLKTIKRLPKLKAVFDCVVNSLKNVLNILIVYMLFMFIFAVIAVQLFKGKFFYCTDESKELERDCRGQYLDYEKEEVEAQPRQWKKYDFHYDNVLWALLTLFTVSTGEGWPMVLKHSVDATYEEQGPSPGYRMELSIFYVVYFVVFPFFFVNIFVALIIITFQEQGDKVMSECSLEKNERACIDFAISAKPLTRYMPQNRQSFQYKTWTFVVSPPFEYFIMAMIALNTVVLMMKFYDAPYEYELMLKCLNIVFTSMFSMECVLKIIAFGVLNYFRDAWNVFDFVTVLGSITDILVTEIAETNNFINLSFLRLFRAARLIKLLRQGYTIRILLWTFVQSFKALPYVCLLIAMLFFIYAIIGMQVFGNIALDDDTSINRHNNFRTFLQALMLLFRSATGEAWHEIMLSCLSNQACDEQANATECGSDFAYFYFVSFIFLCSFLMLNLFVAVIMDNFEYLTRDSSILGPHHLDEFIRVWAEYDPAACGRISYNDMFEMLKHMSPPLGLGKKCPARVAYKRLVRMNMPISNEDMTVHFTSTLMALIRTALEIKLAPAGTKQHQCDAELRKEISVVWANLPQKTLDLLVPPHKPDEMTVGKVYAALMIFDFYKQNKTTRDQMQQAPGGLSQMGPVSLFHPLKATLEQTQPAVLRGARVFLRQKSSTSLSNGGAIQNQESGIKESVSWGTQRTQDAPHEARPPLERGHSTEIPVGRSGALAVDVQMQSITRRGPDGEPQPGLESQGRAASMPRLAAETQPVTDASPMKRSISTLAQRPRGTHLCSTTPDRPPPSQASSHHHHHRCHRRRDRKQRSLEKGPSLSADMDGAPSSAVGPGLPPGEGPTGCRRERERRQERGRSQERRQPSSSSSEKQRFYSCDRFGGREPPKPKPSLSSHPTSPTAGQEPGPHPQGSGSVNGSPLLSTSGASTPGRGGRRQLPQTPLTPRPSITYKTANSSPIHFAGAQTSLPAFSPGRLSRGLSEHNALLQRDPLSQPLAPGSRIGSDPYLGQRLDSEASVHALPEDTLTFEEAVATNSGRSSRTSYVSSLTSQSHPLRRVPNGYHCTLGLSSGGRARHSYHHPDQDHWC
T2 sequence (P54284 whole entry partner): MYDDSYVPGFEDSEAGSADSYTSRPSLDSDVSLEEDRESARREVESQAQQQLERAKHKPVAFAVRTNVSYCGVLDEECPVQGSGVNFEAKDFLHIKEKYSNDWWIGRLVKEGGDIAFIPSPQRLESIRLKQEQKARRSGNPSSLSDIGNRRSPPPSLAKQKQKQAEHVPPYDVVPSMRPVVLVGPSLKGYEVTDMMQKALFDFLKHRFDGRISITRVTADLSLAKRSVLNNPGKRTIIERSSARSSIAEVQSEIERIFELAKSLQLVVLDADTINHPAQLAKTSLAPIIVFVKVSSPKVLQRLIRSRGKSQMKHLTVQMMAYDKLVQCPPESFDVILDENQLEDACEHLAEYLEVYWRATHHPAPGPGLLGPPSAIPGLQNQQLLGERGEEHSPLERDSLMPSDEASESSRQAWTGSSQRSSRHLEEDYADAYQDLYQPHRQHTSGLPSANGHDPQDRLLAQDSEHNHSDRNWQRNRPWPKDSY
T2 sequence (P54289 25-946 partner limits assumed): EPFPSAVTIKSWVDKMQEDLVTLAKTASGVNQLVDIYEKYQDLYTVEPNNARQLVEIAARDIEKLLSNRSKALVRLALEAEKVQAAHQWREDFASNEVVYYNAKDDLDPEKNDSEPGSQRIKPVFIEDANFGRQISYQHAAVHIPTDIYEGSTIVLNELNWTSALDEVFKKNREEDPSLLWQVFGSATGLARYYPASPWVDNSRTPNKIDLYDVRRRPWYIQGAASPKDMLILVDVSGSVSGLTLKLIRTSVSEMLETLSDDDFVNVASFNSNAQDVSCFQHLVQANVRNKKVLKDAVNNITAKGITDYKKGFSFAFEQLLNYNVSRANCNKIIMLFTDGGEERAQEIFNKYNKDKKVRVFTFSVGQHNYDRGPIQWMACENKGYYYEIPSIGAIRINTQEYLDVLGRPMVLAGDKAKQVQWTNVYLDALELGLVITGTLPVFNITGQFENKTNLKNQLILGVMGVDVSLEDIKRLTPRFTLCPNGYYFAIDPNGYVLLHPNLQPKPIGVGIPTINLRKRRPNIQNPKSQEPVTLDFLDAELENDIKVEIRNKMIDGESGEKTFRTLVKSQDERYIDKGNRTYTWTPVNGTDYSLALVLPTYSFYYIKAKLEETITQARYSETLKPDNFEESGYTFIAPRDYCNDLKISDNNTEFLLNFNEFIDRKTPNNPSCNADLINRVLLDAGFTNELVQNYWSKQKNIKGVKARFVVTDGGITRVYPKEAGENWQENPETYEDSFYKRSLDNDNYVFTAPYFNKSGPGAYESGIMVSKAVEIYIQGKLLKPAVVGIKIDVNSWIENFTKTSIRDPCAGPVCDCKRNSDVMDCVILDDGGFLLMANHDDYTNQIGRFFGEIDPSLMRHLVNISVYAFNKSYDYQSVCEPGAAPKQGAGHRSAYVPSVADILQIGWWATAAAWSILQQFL
T2 sequence (P54289 947-1103 partner limits assumed): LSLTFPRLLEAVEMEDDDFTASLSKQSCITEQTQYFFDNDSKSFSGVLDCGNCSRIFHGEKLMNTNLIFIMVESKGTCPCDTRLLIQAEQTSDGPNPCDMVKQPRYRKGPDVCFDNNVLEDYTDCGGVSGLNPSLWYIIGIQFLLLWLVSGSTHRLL
T1 sequence (Q00975 whole entry): as the sequence (Q00975 whole entry) above
T1 sequence (P54284 whole entry partner): as the sequence (P54284 whole entry partner) above
T1 sequence (P54289 25-946 partner limits assumed): as the sequence (P54289 25-946 partner limits assumed) above
T1 sequence (P54289 947-1103 partner limits assumed): as the sequence (P54289 947-1103 partner limits assumed) above

| Compound | IC50 [1] | other results |
| --- | --- | --- |
| CCN(c1ccc(CN(C(=O)C2CCCN2Cc2ccccc2)c2ccc(F)cc2)cn1)C1CC1 (stereo not drawn) [Compound 115, 1-Benzyl-pyrrolidine-2-carboxylic acid [6-(Cyclopropyl(ethyl)amino)-pyridin-3-ylmethyl]-(4-fluorophenyl)-amide] | – | IC50 (Cav2.2; fifth pulse (P5) of 5 Hz train, read-out: HEK Cav2.2 P5 IC50): 0.6 µM; IC50 (Cav2.2; first pulse (P1) of 5 Hz train, read-out: HEK Cav2.2 P1 IC50): 2.7 µM |
| CCN(CC)c1ccc(CN(C(=O)[C@@H]2CCCN2)c2ccc(F)cc2)cn1 [Compound 116, N-{[6-(diethylamino)pyridin-3-yl]methyl}-N-(4-fluroophenyl)-L-prolinamide] | 34.8 µM | – |
| CCN(c1ccc(CN(C(=O)[C@@H]2CCCN2)c2ccc(OC)cc2)cc1)C1CC1 [Compound 117, N-{4-[cyclopropyl(ethyl)amino]benzyl}-N-(4-methoxyphenyl)-L-prolinamide] | 9.7 µM | – |
| CCN(c1cccc(CN(C(=O)[C@@H]2CCCN2)c2ccc(F)cc2)c1)C1CC1 [Compound 118, N-{3-[cyclopropyl(ethyl)amino]benzyl}-N-(4-fluorophenyl)-L-prolinamide] | 3.4 µM | – |
| CCN(CC)c1cccc(CN(C(=O)[C@@H]2CCCN2)c2ccc(Cl)cc2)n1 [Compound 119, N-(4-chlorophenyl)-N-{[6-(diethylamino)pyridin-2-yl]methyl}-L-prolinamide] | 12.2 µM | – |
| Cc1cc(F)ccc1N(Cc1cnc(N2CCCCC2)nc1)C(=O)[C@@H]1CCCN1 [Compound 120, N-(4-fluoro-2-methylphenyl)-N-[(2-piperidin-1-ylpyrimidin-5-yl)methyl]-L-prolinamide] | 13.7 µM | – |
| Cc1ccc(N(Cc2cnc(N3CCCC3)s2)C(=O)[C@@H]2CCCN2)cc1 [Compound 121, N-(4-methylphenyl)-N-[(2-pyrrolidin-1-yl-1,3-thiazol-5-yl)methyl]-L-prolinamide] | 20.9 µM | – |
| CCN(c1nc(CN(C(=O)[C@@H]2CCCN2)c2ccc(F)cc2)cs1)C1CC1 [Compound 122, N-({2-[cyclopropyl(ethyl)amino]-1,3-thiazol-4-yl}methyl)-N-(4-fluorophenyl)-L-prolinamide] | 13.8 µM | – |
| CCN(c1nc(CN(C(=O)[C@H]2CCCN2)c2ccc(F)cc2)cs1)C1CC1 [Compound 123, N-({2-[cyclopropyl(ethyl)amino]-1,3-thiazol-4-yl}methyl)-N-(4-fluorophenyl)-D-prolinamide] | 10.2 µM | – |
| CCN(c1nc(CN(C(=O)[C@@H]2CCC(=O)N2)c2ccc(F)cc2)cs1)C1CC1 [Compound 124, N-({2-[cyclopropyl(ethyl)amino]-1,3-thiazol-4-yl}methyl)-N-(4-fluorophenyl)-5-oxo-L-prolinamide] | 19.7 µM | – |
| CN1CCN(c2ccc(CN(C(=O)C3CCCCC3)c3ccc(F)cc3)cn2)CC1 [Compound 125, N-(4-fluorophenyl)-N-{[6-(4-methylpiperazin-1-yl)pyridin-3-yl]methyl}cyclohexanecarboxamide] | 9.5 µM | – |
| CN1CCN(c2ccc(CN(C(=O)NC(C)(C)C)c3ccc(F)cc3)cn2)CC1 [Compound 126, N′-(tert-butyl)-N-(4-fluorophenyl)-N-{[6-(4-methylpiperazin-1-yl)pyridin-3-yl]methyl}urea] | 30 µM | – |
| CC(CC(=O)N(Cc1ccc(N(C)CCc2ccccn2)nc1)c1ccc(F)cc1)C(F)(F)F (stereo not drawn) [Compound 127] | 2.6 µM | – |
| O=C(C1CCCCC1)N(Cc1ccc(N2CCN(c3ccccn3)CC2)nc1)c1ccc(F)cc1 [Compound 128, N-(4-fluorophenyl)-N-{[6-(4-pyridin-2-ylpiperazin-1-yl)pyridin-3-yl]methyl}cyclohexanecarboxamide] | 9.1 µM | – |
| CCN(CC)c1ccc(CN(C(=O)Cc2cccs2)c2ccc(F)cc2)cn1 [Compound 129] | 1.5 µM | – |
| CN(CCO)c1ccc(CN(C(=O)C(C)(C)C)c2ccc(F)cc2)cn1 [Compound 130, N-(4-fluorophenyl)-N-({6-[(2-hydroxyethyl)(methyl)amino]pyridin-3-yl}methyl)-2,2-dimethylpropanamide] | 14.8 µM | – |
| Cc1ccc(OCCN(C)c2ccc(CN(C(=O)C(C)(C)C)c3ccc(F)cc3)cn2)nc1 [Compound 131, N-(4-fluorophenyl)-2,2-dimethyl-N-{[6-(methyl{2-[(5-methylpyridin-2-yl)oxy]ethyl}amino)pyridin-3-yl]methyl}propanamide] | 8.1 µM | – |
| CCN(CC)C1CCN(c2ccc(CN(C(=O)C(C)(C)C)c3ccc(F)cc3)cn2)C1 (stereo not drawn) [Compound 133, N-({6-[3-(diethylamino)pyrrolidin-1-yl]pyridin-3-yl}methyl)-N-(4-fluorophenyl)-2,2-dimethylpropanamide] | 11.5 µM | – |
| CCC(=O)N(CCc1cccnc1)c1ccc(CN(C(=O)C(C)(C)C)c2ccc(F)cc2)cn1 [Compound 135] | 1.35 µM | – |
| O=C(C1CCCCC1)N(Cc1csc(N2CCOCC2)n1)c1ccc(F)cc1 [Compound 137, N-(4-fluorophenyl)-N-[(2-morpholin-4-yl-1,3-thiazol-4-yl)methyl]cyclohexanecarboxamide] | 11.2 µM | – |
| CCN(c1ccc(CN(C(=O)C(C)(C)C)c2ccc(F)cc2)cn1)C1CC1 [Compound 139, N-({6-[cyclopropyl(ethyl)amino]pyridin-3-yl}methyl)-N-(4-fluorophenyl)-2,2-dimethylpropanamide] | 1.3 µM | – |
| COc1ccc(N(C)c2nc(CN(C(=O)C(C)(C)C)c3ccc(F)cc3)cs2)cc1 [Compound 142, N-(4-fluroophenyl)-N-({2-[(4-methoxyphenyl)(methyl)amino]-1,3-thiazol-4-yl}methyl)-2,2-dimethylpropanamide] | 6.8 µM | – |
| CCN(c1nc(CN(C(=O)C(C)(C)C)c2ccc(F)cc2)cs1)C1CC1 [Compound 143, N-({2-[cyclopropyl(ethyl)amino]-1,3-thiazol-4-yl}methyl)-N-(4-fluorophenyl)-2,2-dimethylpropanamide] | 3.8 µM | – |

Now from value to molecule, other results behind:

| IC50 [1] | Compound | other results |
| --- | --- | --- |
| 8.2 µM | CC(C)(C)C(=O)N(Cc1ccc(N2CCCC2)nc1)c1ccc(F)cc1 [Compound 132, N-(4-fluorophenyl)-2,2-dimethyl-N-[(6-pyrrolidin-1-ylpyridin-3-yl)methyl]propanamide] | – |
| 4.4 µM | CC(C)(C)C(=O)N(Cc1csc(N2CCCCC2)n1)c1ccc(F)cc1 [Compound 134, N-(4-fluorophenyl)-2,2-dimethyl-N-[(2-piperidin-1-yl-1,3-thiazol-4-yl)methyl]propanamide] | – |
| 5.6 µM | CC(C)(C)C(=O)N(Cc1csc(N2CCOCC2)n1)c1ccc(F)cc1 [Compound 136, N-(4-fluorophenyl)-2,2-dimethyl-N-[(2-morpholin-4-yl-1,3-thiazol-4-yl)methyl]propanamide] | – |
| 14.5 µM | CCC(C)(C)C(=O)N(Cc1csc(N2CCOCC2)n1)c1ccc(F)cc1 [Compound 138, N-(4-fluorophenyl)-2,2-dimethyl-N-[(2-morpholin-4-yl-1,3-thiazol-4-yl)methyl]butanamide] | – |
| 4.4 µM | CC(C)(C)C(=O)N(Cc1csc(N2CCCC2)n1)c1ccc(F)cc1 [Compound 140, N-(4-fluorophenyl)-2,2-dimethyl-N-[(2-pyrrolidin-1-yl-1,3-thiazol-4-yl)methyl]propanamide] | – |
| 7.6 µM | CN(c1ccc(F)cc1)c1nc(CN(C(=O)C(C)(C)C)c2ccc(F)cc2)cs1 [Compound 141, N-(4-fluorophenyl)-N-({2-[(4-fluorophenyl)(methyl)amino]-1,3-thiazol-4-yl}methyl)-2,2-dimethylpropanamide] | – |
| 3.2 µM | CC(C)(C)C(=O)N(Cc1csc(Br)n1)c1ccc(F)cc1 [Compound 144, N-[(2-bromo-1,3-thiazol-4-yl)methyl]-N-(4-fluorophenyl)-2,2-dimethylpropanamide] | – |
| 18.5 µM | CC1CN(c2nc(CN(C(=O)C(C)(C)C)c3ccc(F)cc3)cs2)CC(C)N1 (stereo not drawn) [Compound 145, N-{[2-(3,5-dimethylpiperazin-1-yl)-1,3-thiazol-4-yl]methyl}-N-(4-fluorophenyl)-2,2-dimethylpropanamide] | – |
| 35.4 µM | CC(C)(C)OC(=O)N1CCN(c2nc(CN(C(=O)C(C)(C)C)c3ccc(F)cc3)cs2)CC1 [Compound 146, tert-butyl 4-(4-{[(2,2-dimethylpropanoyl)(4-fluorophenyl)amino]methyl}--1,3-thiazol-2-yl)piperazine-1-carboxylate] | – |
| 2.8 µM | CC(C)(C)C(=O)N(Cc1csc(N2CCN(c3ccccc3)CC2)n1)c1ccc(F)cc1 [Compound 147, N-(4-fluorophenyl)-2,2-dimethyl-N-{[2-(4-phenylpiperazin-1-yl)-1,3-thiazol-4-yl]methyl}propanamide] | – |
| 15.4 µM | CC(C)N1CCN(c2nc(CN(C(=O)C(C)(C)C)c3ccc(F)cc3)cs2)CC1 [Compound 148, N-(4-fluroophenyl)-N-{[2-(4-isopropylpiperazin-1-yl)-1,3-thiazol-4-yl]methyl}-2,2-dimethylpropanamide] | – |
| 8.1 µM | CC(C)(C)C(=O)N(Cc1csc(N2CCN(c3ccccn3)CC2)n1)c1ccc(F)cc1 [Compound 149, N-(4-fluorophenyl)-2,2-dimethyl-N-{[2-(4-pyridin-2-ylpiperazin-1-yl)--1,3-thiazol-4-yl]methyl}propanamide] | – |
